{"source": "patent US12071626B2", "about": "“Splice-switching oligonucleotides and methods of use” (priority 2015, dated 2024)", "type_in_all_cases": "cell-based, human", "key": {"[1]": {"system": "pEGFR", "test": "pEGFR Western blot in LNCaP cells after EGF exposure", "conditions": "250 nM SSO, 72 hrs post transfection, 10 ng/ml EGF for 10 minutes, normalized to GAPDH and vehicle control", "method": "LNCaP cells were treated with transfection reagent alone or with 250 nM EGRF exon 16 or 18 SSOs. 72 hrs post transfection, cells were exposed to 10 ng/ml EGF for 10 minutes before lysing and haresting total protein. pEGFR and GAPDH were visualized via Western blot and imaged and quantified on a Licor Odyssey Fc. pEGFR quantities are normalized to GAPDH and then to vehicle control.\nLNCaP cells were treated with transfection reagent alone or with 250 nM EGFR exon 16 or 18 SSOs. 72 hours post transfection, cells were exposed to 10 ng/mL EGF for 10 minutes before lysing and harvesting total protein. pEGFR and GAPDH were visualized via Odyssey Fc. pEGFR quantities are normalized to GAPDH and then to vehicle control."}, "[2]": {"system": "EGFR pre-mRNA", "test": "RT-PCR (endpoint, gel) of EGFR exon 16 / exon 18 skipping in LNCaP cells", "conditions": "increasing concentrations of SSO vs transfection reagent alone, RNA 72 hrs after transfection", "method": "LNCaP cells were treated with transfection reagent alone or with increasing concentrations of exon 16 (left) or exon 18 (right) SSO. RNA was harvested 72 hrs after transfection. Targets were visualized by RT-PCR using primers located in the exons flanking the target exon, as depicted above the gel images. Products were confirmed by sequencing.\nLNCaP cells were treated with transfection reagent alone or with increasing concentrations of exon 16 (SSO #1, left in FIG. 8) or exon 18 (SSO #2, right in FIG. 8). RNA was harvested 72 hours after transfection. Targets were visualized by RT-PCR using primers located in the exons flanking the target exon, as depicted above the gel images in FIG. 8. Products were confirmed by sequencing. The primers used were: […]"}, "[3]": {"system": "EGFR pre-mRNA", "test": "qPCR quantitation of EGFR exon 16 / exon 18 skipped products", "conditions": "increasing concentrations of SSO", "text": "qPCR primers correspond to those used in FIG. 10 and endpoint PCR primers correspond to those used in FIG. 8."}, "[4]": {"system": "AR-V7 protein", "test": "AR-V7 protein in LN95 prostate cancer cells transfected with SSO", "conditions": "increasing concentrations of SSO"}, "[5]": {"system": "MDA PCa 2b prostate cancer cells", "test": "Colony forming ability of MDA PCa 2b prostate cancer cells", "conditions": "MDA PCa 2b cells"}, "[6]": {"system": "LN95 prostate cancer cells", "test": "Proliferation of LN95 prostate cancer cells"}, "[7]": {"system": "AR-V7 RNA", "test": "AR-V7 RNA by QRT-PCR in prostate cancer cells transfected with SSO", "conditions": "RNA 72 hours after transfection, normalized to TBP", "method": "LN95, VCaP, 22Rv1 and MDA PCa 2b cells were treated with control scrambled SSO or with increasing concentrations of AR-V7 SSO, as indicated. RNA was harvested 72 hours after transfection for cDNA production and QRT-PCR analysis. Ct values were normalized to TBP, TATA-binding protein, in each sample and used to generate relative expression values.\n(§1) MDA PCa 2b cells were treated with transfection reagent alone or with increasing concentrations of AR45 SSO, as indicated. RNA was harvested 72 hours after transfection for cDNA production and QRT-PCR analysis. Ct values were normalized to TBP, TATA-binding protein, in each sample and used to generate relative expression values."}, "[8]": {"system": "AR signaling", "test": "AR signaling: QRT-PCR of known AR induced and AR repressed targets in MDA PCa 2b cells", "conditions": "400 nM SSO vs transfection reagent alone, RNA 72 hours after transfection", "method": "MDA Pca 2b cells were treated with transfection reagent alone or with 400 nM AR45 SSO. RNA was harvested 72 hours after transfection for cDNA production and QRT-PCR analysis (Light green=known AR induced targets, dark green=known AR repressed targets)."}, "[9]": {"system": "wild type AR", "test": "Wild type (full-length) AR RNA by QRT-PCR in MDA PCa 2b cells transfected with SSO", "conditions": "increasing concentrations of SSO vs transfection reagent alone, RNA 72 hours after transfection, normalized to TBP", "method": "as §1"}, "[10]": {"system": "AR45", "test": "AR45 RNA by QRT-PCR in MDA PCa 2b cells transfected with SSO", "conditions": "increasing concentrations of SSO vs transfection reagent alone, RNA 72 hours after transfection, normalized to TBP", "method": "as §1"}}, "note": "Entries after “also recorded” stand apart in the source; their conditions may differ. In the oligonucleotide strings, read from the 5' end, every base follows the letter of its sugar. An asterisk marks phosphorothioate; unmarked linkages are phosphodiester. Other units and linkages are bracketed, terminal groups are in braces. A string of capitals states the bases alone. m = 2'-O-methyl", "data": [{"substance": "mC*mC*mA*mG*mG*mG*mA*mC*mC*mU*mU*mA*mC*mC*mU*mU*mA*mU [EGFR exon 18 SSO]", "values": [{"measurement": "pEGFR protein expression", "setting": "[1]", "result": "block pEGFR protein expression"}, {"measurement": "pEGFR protein expression", "setting": "[1]; listed as EGRF exon 18 SSO", "result": "inhibition of pEGFR expression"}, {"measurement": "production of dominant-negative EGFR variants (exon skipping, RT-PCR gel)", "setting": "[2]", "result": "drive production of dominant-negative EGFR variants in a dose-dependent manner"}, {"measurement": "production of dominant-negative EGFR variants (quantitated, qPCR of skipped product)", "setting": "[3]", "result": "drive production of dominant-negative EGFR variants in a dose-dependent manner"}]}, {"substance": "mG*mC*mC*mA*mA*mC*mC*mC*mG*mG*mA*mA*mU*mU*mU*mU*mU*mC [AR-V7 SSO]", "values": [{"measurement": "AR-V7 protein", "setting": "[4]", "result": "inhibiting AR-V7 RNA (left) and protein (right) in a dose-dependent manner"}, {"measurement": "colony forming ability", "setting": "[5]", "result": "inhibiting colony forming ability"}, {"measurement": "proliferation", "setting": "[6]", "result": "inhibiting proliferation"}, {"measurement": "proliferation in the presence of enzalutamide", "setting": "[6]; in the presence of enzalutmide", "result": "inhibiting proliferation"}, {"measurement": "AR-V7 RNA relative expression", "setting": "[7]; 22Rv1 cells, vs control scrambled SSO", "result": "inhibiting AR-V7 RNA; also recorded: Dose-dependent inhibition of AR-V7"}, {"measurement": "AR-V7 RNA relative expression", "setting": "[7]; LN95 cells, increasing concentrations of SSO vs control scrambled SSO", "result": "inhibiting AR-V7 RNA (left) and protein (right) in a dose-dependent manner; also recorded: Dose-dependent inhibition of AR-V7"}, {"measurement": "AR-V7 RNA relative expression", "setting": "[7]; MDA PCa 2b cells, vs control scrambled SSO", "result": "inhibiting AR-V7 RNA; also recorded: Dose-dependent inhibition of AR-V7"}, {"measurement": "AR-V7 RNA relative expression", "setting": "[7]; VCaP cells, vs control scrambled SSO", "result": "inhibiting AR-V7 RNA; also recorded: Dose-dependent inhibition of AR-V7"}]}, {"substance": "mG*mC*mU*mG*mU*mG*mA*mA*mC*mA*mC*mU*mU*mA*mC*mC*mC*mA [EGFR exon 16 SSO]", "values": [{"measurement": "pEGFR protein expression", "setting": "[1]", "result": "block pEGFR protein expression"}, {"measurement": "pEGFR protein expression", "setting": "[1]; listed as EGRF exon 16 SSO", "result": "inhibition of pEGFR expression"}, {"measurement": "production of dominant-negative EGFR variants (exon skipping, RT-PCR gel)", "setting": "[2]", "result": "drive production of dominant-negative EGFR variants in a dose-dependent manner"}, {"measurement": "production of dominant-negative EGFR variants (quantitated, qPCR of skipped product)", "setting": "[3]", "result": "drive production of dominant-negative EGFR variants in a dose-dependent manner"}]}, {"substance": "mG*mG*mA*mA*mA*mA*mA*mC*mU*mU*mA*mC*mC*mG*mC*mA*mU*mG [AR45 SSO]", "values": [{"measurement": "AR signaling (RNAs of AR induced and AR repressed targets)", "setting": "[8]", "result": "modulating AR signaling; also recorded: Modulation of AR signaling"}, {"measurement": "expression of wild type (full-length) AR RNA", "setting": "[9]", "result": "decreasing wild type AR and AR-V7; also recorded: decreasing expression of full-length AR"}, {"measurement": "production of AR45 (RNA relative expression)", "setting": "[10]", "result": "drives production of the dominant-negative AR variant, AR45"}, {"measurement": "expression of AR-V7 RNA", "setting": "[7]; MDA PCa 2b cells, increasing concentrations of SSO vs transfection reagent alone", "result": "decreasing wild type AR and AR-V7; also recorded: decreasing expression of full-length AR and the constitutively active AR variant, AR-V7"}]}]}
